For data set [1] the following is noted: active metabolite of ticagrelor; supplement ref 17; cited from earlier work.
The nature of data set [2]: Additional hepatic/systemic clearance fitted in PBPK model. The text has this: (§1) S2. PBPK model development and validation physicochemical parameters for these three model drugs, including protein binding and Blood-to-Plasma (B/P) ratio, were obtained from experimental results, while log P and pKa were estimated based on the molecular formula using Gastro Plus ADMET software (version 10.3, […]
(§2) S2.1. Rivaroxaban PBPK model development and validation
S2.1.1. Rivaroxaban PBPK model development for metabolism and elimination module […]
its systemic clearance, CLint_CYP3A4, CLint_CYP2J2 and CLHLM were fitted according to the metabolic fraction of rivaroxaban in vivo and concentration-time profiles from the SAD clinical trial in Caucasian subjects under fasted state. […]
permeability-limited kidney and liver models were employed to account for the active efflux […]
Physicochemical properties

For data set [3], the system named is CYP3A4. Nature of the data set: CYP3A4 intrinsic clearance fitted in PBPK model. The conditions noted are these: Fitted to clinical PK profiles.
Description: as §1, §2
S2.1.1. Rivaroxaban PBPK model development for metabolism and elimination module Given that the metabolic fractions of CYP3A4 and CYP2J2 to the systemic clearance of rivaroxaban were approximately 18% and 14% [1], respectively, and liver hydrolases contributed to about 14% of its systemic clearance, CLint_CYP3A4, CLint_CYP2J2 and CLHLM were fitted according to the metabolic fraction of rivaroxaban in vivo and concentration-time profiles from the SAD clinical trial in Caucasian subjects under fasted state. Considering that rivaroxaban was a substrate of P-gp transporter, and that about 36% and 7% of the parent drug were directly excreted by the kidney and liver, respectively, rivaroxaban may undergo active efflux through the kidney and liver in vivo [2]. Consequently, permeability-limited kidney and liver models were employed to account for the active efflux mechanism of P-gp for rivaroxaban. These models include both passive diffusion and active transport.
Clearances for passive diffusion in the kidney and liver was calculated using Equation S1 [5] and Equation S2 [6], respectively.
CL௉஽,௜ =2×P௔௣௣ × TSA௜ ሺS1ሻ where CLPD,i is the passive diffusion clearance of the drug in compartment i, Papp is the apparent permeability of the drug, and the TSAi is the regional tubular surface area of compartment i.
Log CL௉஽ =0.82×logD଻.ସ +0.5 ሺS2ሻ where CLPD is the passive diffusional clearance of APIs in the liver, and log D 7.4 is the oil-water partition coefficient at pH 7.4 [6] […]
Blood-to-plasma partition ratio 0.714 Measured
Fraction unbound in plasma 0.065 Measured […]
Caco-2(10-6cm/s) (Rivaroxaban) 8.103 Measured […]

For data set [4] the following is noted: ticagrelor metabolite; supplement ref 14; cited from earlier work.
Data set [5] relates to Caco-2. The conditions noted are these: Apical pH : Basolateral pH 7.4 : 7.4, Passive&Active, cited from earlier work.
Data set [6] can be described thus: Caco-2 permeability. In kind it is in vitro ADME. Conditions: human, Apical pH : Basolateral pH 7.4 : 7.4, Passive&Active, Table S6 source 'Measured'. The method, then: Precipitation parameters, such as critical supersaturation ratio (CSC) and precipitation rate constant (PRC), were evaluated when precipitation occurs in the neutral intestinal environment after the mixture of solution and undissolved substance is transferred from the gastric chamber in vitro. These parameters were evaluated by fitting the two-stage dissolution profile according to the crystallization kinetics equations [28, 29, 30]. The absorption module of the PBPK models for rivaroxaban, ticagrelor, and PB-201 was developed using the Advanced Dissolution, Absorption and Metabolism (ADAM) model, which incorporates a mechanistic framework based on drug permeability and the diffusion layer model (DLM). The calibrated permeability of drugs, as determined using the Caco-2 Transwell model, was used to represent the permeability of drugs in vivo [31]. The particle size of the APIs used in the formulation development was incorporated into the Particle Population Balance (PPB) option. The full PBPK model, which includes the predicted steady-state distribution volume (Vss) and tissue-plasma partition coefficient (Kp), was utilized to describe the distribution characteristics of these compounds. The Kp scalar was estimated via sensitive analysis to match observed concentration-time (C-T) profiles. […]

The values that follow come from article PMC11511194, “Key Factors for Improving Predictive Accuracy and Avoiding Overparameterization of the PBPK Absorption Model in Food Effect Studies of Weakly Basic Water-Insoluble Compounds in Immediate Release Formulations” (Pharmaceutics, 2024).

The term Papp denotes the rate of passage across a membrane or cell layer, normalised by area and donor concentration. A low value points to poor permeation.

Each structure is given as a SMILES string. Read-outs that look alike come from different tables or passages of the source.

Turning to `CCCSc1nc(N[C@@H]2C[C@H]2c2ccc(F)c(F)c2)c2nnn([C@@H]3C[C@H](O)[C@@H](O)[C@H]3O)c2n1` [AR-C124910XX], the renal excretion entry in data set [1] is reported as “about 0.04%”. Further, the “Additional HLM CLint” value in data set [2] came out at 5000 μL/min/mg protein. The “Intrinsic clearance of CYP 3A4” value in data set [3] turned out to be 6.000 µL/min/pmol. In data set [4], the “Fraction unbound in plasma” value is on record as 0.002.

On to `CN/C(=N/CCSCc1nc[nH]c1C)NC#N` [Cimetidine], for which the Caco-2 permeability in data set [5] (supplement ref 4) is on record as 2.36 10-6cm/s.

Regarding `COCCc1ccc(OCC(O)CNC(C)C)cc1` (centres unmarked) [Metoprolol], the Caco-2 permeability in data set [5] (supplement ref 19) is reported as 15.0 10-6cm/s.

Turning to `CC(C)NCC(O)COc1cccc2ccccc12` (centres unmarked) [Propranolol], in data set [5] (supplement ref 4), the Caco-2 permeability is 31 10-6cm/s. Further, the Papp in data set [6] came out at 29.4 ×10⁻⁶ cm/s.
